Laboratory results taken from patent US20080021026A1, “BENZOTHIOPHENE INHIBITORS OF RHO KINASE” (priority 2006, published 2008).
Where two headings read alike, the source gives them in different places.

Assays:
[1] = target: T1, recombinant N-terminal GST-tagged human Rho kinase 1 (ROCK1, amino acids 1-535) (Homo sapiens, UniProt Q13464); experiment: In vitro Rho kinase assay (luciferase-based ATP consumption), ROCK1; format: biochemical
T1 construct: ROCK1, amino acids 1-535; purchased Invitrogen Inc. PV-3691
T1 sequence (Q13464 1-535): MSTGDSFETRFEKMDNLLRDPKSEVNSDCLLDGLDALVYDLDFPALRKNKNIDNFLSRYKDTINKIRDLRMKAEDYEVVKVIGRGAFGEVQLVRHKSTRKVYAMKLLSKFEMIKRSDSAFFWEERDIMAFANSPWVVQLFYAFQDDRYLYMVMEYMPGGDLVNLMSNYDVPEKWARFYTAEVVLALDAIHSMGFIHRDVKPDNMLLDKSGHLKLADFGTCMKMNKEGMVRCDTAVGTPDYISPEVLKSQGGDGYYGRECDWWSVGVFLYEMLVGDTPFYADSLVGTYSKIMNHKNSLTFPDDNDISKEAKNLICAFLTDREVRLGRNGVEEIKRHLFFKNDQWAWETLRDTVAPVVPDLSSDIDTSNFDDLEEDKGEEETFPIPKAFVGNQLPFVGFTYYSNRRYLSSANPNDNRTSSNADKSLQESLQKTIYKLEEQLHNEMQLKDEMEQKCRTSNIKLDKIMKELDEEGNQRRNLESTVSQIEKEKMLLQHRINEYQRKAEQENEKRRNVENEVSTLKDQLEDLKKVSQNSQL
Procedure, shortened: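 ATP depletion measured by firefly luciferase luminescence after 2 h at 30 °C, with inhibition raising signal and activity expressed relative to H-1152P. Reaction: 0.82 μg/ml recombinant GST-tagged ROCK1 (aa 1-535), S6 peptide 100 μg/ml, […], pH 7.5 Tris buffer.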

[2] = target: T2, recombinant N-terminal GST-tagged human Rho kinase 2 (ROCK2, amino acids 1-552) (Homo sapiens, UniProt O75116); experiment: In vitro Rho kinase assay (luciferase-based ATP consumption), ROCK2; format: biochemical
T2 construct: ROCK2, amino acids 1-552; purchased Invitrogen Inc. PV3759
T2 sequence (O75116 1-552): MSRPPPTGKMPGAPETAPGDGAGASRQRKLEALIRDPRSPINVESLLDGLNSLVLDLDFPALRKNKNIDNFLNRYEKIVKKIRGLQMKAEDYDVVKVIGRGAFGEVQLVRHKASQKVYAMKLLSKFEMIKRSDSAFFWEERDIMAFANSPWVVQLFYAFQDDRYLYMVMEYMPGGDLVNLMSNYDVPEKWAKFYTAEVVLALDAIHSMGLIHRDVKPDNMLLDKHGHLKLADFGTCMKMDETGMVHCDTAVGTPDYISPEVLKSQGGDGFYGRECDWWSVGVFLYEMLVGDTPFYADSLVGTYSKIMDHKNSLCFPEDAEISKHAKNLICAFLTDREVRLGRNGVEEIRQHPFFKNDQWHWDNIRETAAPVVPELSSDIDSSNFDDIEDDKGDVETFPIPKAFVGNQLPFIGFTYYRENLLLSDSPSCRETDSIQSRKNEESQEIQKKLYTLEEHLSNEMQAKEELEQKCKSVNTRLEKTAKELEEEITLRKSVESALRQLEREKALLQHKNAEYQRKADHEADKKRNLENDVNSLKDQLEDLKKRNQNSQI
Procedure, shortened: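 Luciferase-based luminescence of leftover ATP after 2 h at 30 °C, where inhibition raises signal, reports activity of GST-tagged ROCK2 (aa 1-552) at 0.82 μg/ml. Conditions: S6 peptide 100 μg/ml, […], pH 7.5 Tris buffer. Results given as percent of H-1152P control activity.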

[3] = recombinant GST-tagged human ROCK1, luciferase-based ATP consumption, read-out: ROCK1 IC50
[4] = recombinant GST-tagged human ROCK2, luciferase-based ATP consumption, read-out: ROCK2 IC50
[5] = ROCK1 IC50, recombinant GST-tagged human ROCK1, luciferase-based ATP consumption
[6] = ROCK2 IC50, recombinant GST-tagged human ROCK2, luciferase-based ATP consumption

| SMILES | IC50 [1, 3] [µM] | IC50 [2, 4] [µM] | IC50 [1, 5] [µM] | IC50 [2, 6] [µM] |
| --- | --- | --- | --- | --- |
| CCC(C(=O)NCc1ccc2sc(-c3ccnc(N)n3)c(C)c2c1)c1ccccc1 (stereo not drawn) [Example 169, CCC(C(═O)NCc1ccc2sc(c(C)c2c1)-c3ccnc(N)n3)c4ccccc4] | < 5 | < 5 |  |  |
| Cc1c(-c2ccnc(N)n2)sc2ccc(Sc3cccc(C(=O)O)c3)cc12 [Example 86, 3-(2-(2-Aminopyrimidin-4-yl)-3-methylbenzo[b]thiophen-5-ylthio)benzoic acid] | < 5 | < 5 |  |  |
| Cc1c(-c2ccnc(N)n2)sc2ccc(CNC(=O)c3ccccc3)cc12 [Example 108, Cc1c(sc2ccc(CNC(═O)c3ccccc3)cc12)-c4ccnc(N)n4] | < 5 | > 5 |  |  |
| Cc1c(-c2ccnc(N)n2)oc2ccccc12 [Example 3, 4-(3-Methylbenzofuran-2-yl)pyrimidin-2-amine] | < 5 | < 5 |  |  |
| Cc1c(-c2ccnc(N)n2)sc2ccc(CNC(=O)c3ccccc3C(=O)c3ccc(O)cc3)cc12 [Example 316, Cc1c(sc2ccc(CNC(═O)c3ccccc3C(═O)c4ccc(O)cc4)cc12)-c5ccnc(N)n5] | < 5 | < 5 |  |  |
| Cc1c(-c2ccnc(N)n2)sc2ccc(CNC(=O)CC(C)CC(C)(C)C)cc12 (stereo not drawn) [Example 158, CC(CC(═O)NCc1ccc2sc(c(C)c2c1)-c3ccnc(N)n3)CC(C)(C)C] | > 5 | > 5 |  |  |
| Cc1c(-c2nccnc2N)sc2ccc(Cl)cc12 [Example 12, 3-(5-Chloro-3-methylbenzo[b]thiophen-2-yl)pyrazin-2-amine] | > 5 | > 5 |  |  |
| Cc1c(-c2ccnc(N)n2)sc2ccc(Cc3cccc(C(=O)OC(C)C)c3)cc12 [Example 43, Isopropyl 3-((2-(2-aminopyrimidin-4-yl)-3-methylbenzo[b]thiophen-5-yl)methyl)benzoate] | < 5 | < 5 |  |  |
| Cc1c(-c2ccnc(N)n2)sc2ccc(CNC(=O)c3ccc(C(C)(C)C)cc3)cc12 [Example 204, Cc1c(sc2ccc(CNC(═O)c3ccc(cc3)C(C)(C)C)cc12)-c4ccnc(N)n4] | < 5 | < 5 |  |  |
| Cc1c(-c2ccnc(N)n2)sc2ccc(Nc3cccc(Oc4ccccc4)c3)cc12 [Example 53, 4-(3-Methyl-5-(3-phenoxyphenylamino)benzo[b]thiophen-2-yl)pyrimidin-2-amine] | < 5 | < 5 |  |  |
| Cc1cccc(CCC(=O)NCc2ccc3sc(-c4ccnc(N)n4)c(C)c3c2)c1 [Example 168, Cc1cccc(CCC(═O)NCc2ccc3sc(c(C)c3c2)-c4ccnc(N)n4)c1] | < 5 | < 5 |  |  |
| Cc1c(-c2ccnc(N)n2)sc2ccc(CNC(=O)C(F)(F)F)cc12 [Example 105, Cc1c(sc2ccc(CNC(═O)C(F)(F)F)cc12)-c3ccnc(N)n3] | > 5 | < 5 |  |  |
| Cc1c(-c2ccnc(N)n2)sc2ccc(CNC(=O)c3ccccc3C(=O)c3ccc(F)cc3)cc12 [Example 317, Cc1c(sc2ccc(CNC(═O)c3ccccc3C(═O)c4ccc(F)cc4)cc12)-c5ccnc(N)n5] | < 5 | > 5 |  |  |
| Cc1c(-c2ccnc(N)n2)sc2ccc(Nc3cccc(NS(C)(=O)=O)c3)cc12 [Example 56, N-(3-(2-(2-Aminopyrimidin-4-yl)-3-methylbenzo[b]thiophen-5-ylamino)phenyl)methanesulfonamide] | < 5 | < 5 |  |  |
| CCc1c(-c2ccnc(N)n2)sc2ccc(Cl)cc12 [Example 16, 4-(5-Chloro-3-ethylbenzo[b]thiophen-2-yl)pyrimidin-2-amine] | < 5 | < 5 |  |  |
| Cc1c(-c2ccnc(N)n2)sc2ccc(CNC(=O)C(O)CCl)cc12 (stereo not drawn) [Example 112, Cc1c(sc2ccc(CNC(═O)C(O)CCl)cc12)-c3ccnc(N)n3] | > 5 | < 5 |  |  |
| COc1cc(Cl)ccc1C(=O)NCc1ccc2sc(-c3ccnc(N)n3)c(C)c2c1 [Example 233, COc1cc(Cl)ccc1C(═O)NCc2ccc3sc(c(C)c3c2)-c4ccnc(N)n4] | < 5 | < 5 |  |  |
| Cc1c(-c2ccnc(N)n2)sc2ccc(CNC(=O)CC(C)C)cc12 [Example 101, CC(C)CC(═O)NCc1ccc2sc(c(C)c2c1)-c3ccnc(N)n3] | < 5 | < 5 |  |  |
| Cc1c(-c2ccnc(N)n2)sc2ccc(Nc3ccccc3)cc12 [Example 69, 4-(3-Methyl-5-(phenylamino)benzo[b]thiophen-2-yl)pyrimidin-2-amine] | < 5 | < 5 |  |  |
| Cc1c(-c2ccnc(N)n2)sc2ccc(CNC(=O)C3Cc4ccccc4CN3C(=O)OC(C)(C)C)cc12 (stereo not drawn) [Example 327, Cc1c(sc2ccc(CNC(═O)[C]3Cc4ccccc4CN3C(═O)OC(C)(C)C)cc12)-c5ccnc(N)n5] | < 5 | > 5 |  |  |

| SMILES | IC50 [1, 3] [µM] | IC50 [2, 4] [µM] | IC50 [1, 5] [µM] | IC50 [2, 6] [µM] |
| --- | --- | --- | --- | --- |
| Cc1c(-c2ccnc(N)n2)sc2ccc(C(=O)c3ccccc3)cc12 [Example 87, (2-(2-Aminopyrimidin-4-yl)-3-methylbenzo[b]thiophen-5-yl)(phenyl)methanone] | > 5 | < 5 |  |  |
| Cc1c(-c2ccnc(N)n2)sc2ccc(CNC(=O)c3ccc([N+](=O)[O-])cc3Cl)cc12 [Example 266, Cc1c(sc2ccc(CNC(═O)c3ccc(cc3Cl)[N+]([O−])═O)cc12)-c4ccnc(N)n4] |  |  | > 5 | < 5 |
| Cc1ccc(C(=O)NCc2ccc3sc(-c4ccnc(N)n4)c(C)c3c2)cc1C [Example 136, Cc1ccc(cc1C)C(═O)NCc2ccc3sc(c(C)c3c2)-c4ccnc(N)n4] | > 5 | > 5 |  |  |
| Cc1cccc(C(=O)NCc2ccc3sc(-c4ccnc(N)n4)c(C)c3c2)c1C [Example 133, Cc1cccc(c1C)C(═O)NCc2ccc3sc(c(C)c3c2)-c4ccnc(N)n4] | < 5 | < 5 |  |  |
| Cc1c(-c2ccnc(N)n2)sc2ccc(CNC(=O)c3ccc4cccc(O)c4n3)cc12 [Example 240, Cc1c(sc2ccc(CNC(═O)c3ccc4cccc(O)c4n3)cc12)-c5ccnc(N)n5] | < 5 | < 5 |  |  |
| Cc1ccc(C(=O)NCc2ccc3sc(-c4ccnc(N)n4)c(C)c3c2)cc1Br [Example 287, Cc1ccc(cc1Br)C(═O)NCc2ccc3sc(c(C)c3c2)-c4ccnc(N)n4] | > 5 | < 5 |  |  |
| Cc1cccc(C(=O)NCc2ccc3sc(-c4ccnc(N)n4)c(C)c3c2)c1O [Example 139, Cc1cccc(C(═O)NCc2ccc3sc(c(C)c3c2)-c4ccnc(N)n4)c1O] | > 5 | < 5 |  |  |
| Cc1c(-c2ccnc(N)n2)sc2ccc(CNC(=O)C(C)c3cccc(C(=O)c4ccccc4)c3)cc12 (stereo not drawn) [Example 324, CC(C(═O)NCc1ccc2sc(c(C)c2c1)-c3ccnc(N)n3)c4cccc(c4)C(═O)c5ccccc5] | > 5 | > 5 |  |  |
| Cc1c(-c2ccnc(N)n2)sc2ccc(CNC(=O)C3CCCN3C(=O)OCc3ccccc3)cc12 (stereo not drawn) [Example 321, Cc1c(sc2ccc(CNC(═O)[C]3CCCN3C(═O)OCc4ccccc4)cc12)-c5ccnc(N)n5] | < 5 | > 5 |  |  |
| CCOC(=O)CC(=O)NCc1ccc2sc(-c3ccnc(N)n3)c(C)c2c1 [Example 117, CCOC(═O)CC(═O)NCc1ccc2sc(c(C)c2c1)-c3ccnc(N)n3] | > 5 | < 5 |  |  |
| Cc1c(-c2ccnc(N)n2)sc2ccc(CNC(=O)c3ccncc3Cl)cc12 [Example 152, Cc1c(sc2ccc(CNC(═O)c3ccncc3Cl)cc12)-c4ccnc(N)n4] |  |  | < 5 | < 5 |
| Cc1c(-c2ccnc(N)n2)sc2ccc(CNC(=O)C=O)cc12 [Example 96, Cc1c(sc2ccc(CNC(═O)C═O)cc12)-c3ccnc(N)n3] | > 5 | > 5 |  |  |
| Cc1c(-c2ccnc(N)n2)sc2ccc(CNC(=O)c3ccc4ccccc4c3O)cc12 [Example 239, Cc1c(sc2ccc(CNC(═O)c3ccc4ccccc4c3O)cc12)-c5ccnc(N)n5] | > 5 | < 5 |  |  |
| Cc1c(-c2ccnc(N)n2)sc2ccc(CNC(=O)C=Cc3ccccc3O)cc12 [Example 161, Cc1c(sc2ccc(CNC(═O)C═Cc3ccccc3O)cc12)-c4ccnc(N)n4] | < 5 | < 5 |  |  |
| Cc1c(-c2ccnc(N)n2)sc2ccc(CNC(=O)c3cc([N+](=O)[O-])ccc3F)cc12 [Example 229, Cc1c(sc2ccc(CNC(═O)c3cc(ccc3F)[N+]([O−])═O)cc12)-c4ccnc(N)n4] | < 5 | < 5 |  |  |
| Cc1c(-c2ccnc(N)n2)sc2ccc(CNC(=O)C3CCc4ccccc43)cc12 (stereo not drawn) [Example 159, Cc1c(sc2ccc(CNC(═O)C3CCc4ccccc34)cc12)-c5ccnc(N)n5] | < 5 | < 5 |  |  |
| Cc1c(-c2ccnc(N)n2)sc2ccc(CNC(=O)c3cn(C)cn3)cc12 [Example 114, Cc1c(sc2ccc(CNC(═O)c3cn(C)cn3)cc12)-c4ccnc(N)n4] | > 5 | < 5 |  |  |
| Cc1c(-c2ccnc(N)n2)sc2ccc(Nc3ccccn3)cc12 [Example 64, 4-(3-Methyl-5-(pyridin-2-ylamino)benzo[b]thiophen-2-yl)pyrimidin-2-amine] | < 5 | < 5 |  |  |
| Cc1c(-c2ccnc(N)n2)sc2ccc(Cc3cccc(C(=O)Nc4ccc(OCCN5CCCCC5)cc4)c3)cc12 [Example 44, 3-((2-(2-Aminopyrimidin-4-yl)-3-methylbenzo[b]thiophen-5-yl)methyl)-N-(4-(2-(piperidin-1-yl)ethoxy)phenyl)benzamide] | < 5 | < 5 |  |  |
